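96-well plates; 48 h exposure; 5 concentrations. Endpoints by linear interpolation between flanking doses. Not reached: highest tested concentration assigned. The concentration for 50% growth inhibition is given as GI50.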 Activity calls are given as the source filed them. No stated cut-off is given here; in the data, active = GI50 up to about 1.1 µM and inactive = higher.
How the values were obtained:
Test in all cases: NCI anticancer screen, dose series, 48 h
786-0 = system: 786-0
A498 = system: A498
A549 = system: A549
ACHN = system: ACHN
CAKI-1 = system: CAKI-1
CCRF-CEM = system: CCRF-CEM
COLO 205 = system: COLO 205
DLD-1 = system: DLD-1
DMS-114 = system: DMS-114
DMS-273 = system: DMS-273
EKVX = system: EKVX
HCC 2998 = system: HCC 2998
HCT-116 = system: HCT-116
HCT-15 = system: HCT-15
HL-60 = system: HL-60
HOP-18 = system: HOP-18
HOP-62 = system: HOP-62
HOP-92 = system: HOP-92
HT-29 = system: HT-29
IGROV-1 = system: IGROV-1
K562 = system: K562
KM-20L2 = system: KM-20L2
KM12 = system: KM12
LOX IMVI = system: LOX IMVI
LXFL 529 = system: LXFL 529
M14 = system: M14
M19-MEL = system: M19-MEL
MOLT-4 = system: MOLT-4
Malme-3M = system: Malme-3M
NCI-H226 = system: NCI-H226
NCI-H23 = system: NCI-H23
NCI-H460 = system: NCI-H460
NCI-H522 = system: NCI-H522
OVCAR-3 = system: OVCAR-3
OVCAR-4 = system: OVCAR-4
OVCAR-5 = system: OVCAR-5
OVCAR-8 = system: OVCAR-8
RPMI-8226 = system: RPMI-8226
RXF 393 = system: RXF 393
RXF 631 = system: RXF 631
SF-268 = system: SF-268
SF-295 = system: SF-295
SF-539 = system: SF-539
SK-MEL-28 = system: SK-MEL-28
SK-MEL-2 = system: SK-MEL-2
SK-MEL-5 = system: SK-MEL-5
SK-OV-3 = system: SK-OV-3
SN12C = system: SN12C
SNB-19 = system: SNB-19
SNB-75 = system: SNB-75
SNB-78 = system: SNB-78
SW-620 = system: SW-620
TK-10 = system: TK-10
U-251 = system: U-251
UACC-257 = system: UACC-257
UACC-62 = system: UACC-62
UO-31 = system: UO-31
XF498 = system: XF498

C=CN1C(=O)OC[C@@H]1c1ccccc1
GI50 (786-0): > 100 µM (inactive)
GI50 (A498): > 100 µM (inactive)
GI50 (A549): > 100 µM (inactive)
GI50 (ACHN): > 100 µM (inactive)
GI50 (CAKI-1): > 100 µM (inactive)
GI50 (CCRF-CEM): > 100 µM (inactive)
GI50 (COLO 205): > 100 µM (inactive)
GI50 (DLD-1): > 100 µM (inactive)
GI50 (DMS-114): 34.5 µM (inactive)
GI50 (DMS-273): 20 µM (inactive)
GI50 (EKVX): > 100 µM (inactive)
GI50 (HCC 2998): > 100 µM (inactive)
GI50 (HCT-116): 83.2 µM (inactive)
GI50 (HCT-15): 16.6 µM
GI50 (HL-60): > 100 µM (inactive)
GI50 (HOP-18): > 100 µM (inactive)
GI50 (HOP-62): > 100 µM (inactive)
GI50 (HOP-92): > 100 µM (inactive)
GI50 (HT-29): > 100 µM (inactive)
GI50 (IGROV-1): > 100 µM (inactive)
GI50 (K562): > 100 µM (inactive)
GI50 (KM-20L2): > 100 µM (inactive)
GI50 (KM12): > 100 µM (inactive)
GI50 (LOX IMVI): 67 µM (inactive)
GI50 (LXFL 529): > 100 µM (inactive)
GI50 (M14): > 100 µM (inactive)
GI50 (M19-MEL): > 100 µM (inactive)
GI50 (MOLT-4): > 100 µM (inactive)
GI50 (Malme-3M): > 100 µM (inactive)
GI50 (NCI-H226): > 100 µM (inactive)
GI50 (NCI-H23): > 100 µM (inactive)
GI50 (NCI-H460): > 100 µM (inactive)
GI50 (NCI-H522): > 100 µM (inactive)
GI50 (OVCAR-3): > 100 µM (inactive)
GI50 (OVCAR-4): > 100 µM (inactive)
GI50 (OVCAR-5): > 100 µM (inactive)
GI50 (OVCAR-8): > 100 µM (inactive)
GI50 (RPMI-8226): 34.3 µM (inactive)
GI50 (RXF 393): > 100 µM (inactive)
GI50 (RXF 631): > 100 µM (inactive)
GI50 (SF-268): > 100 µM (inactive)
GI50 (SF-295): > 100 µM (inactive)
GI50 (SF-539): > 100 µM (inactive)
GI50 (SK-MEL-28): > 100 µM (inactive)
GI50 (SK-MEL-2): > 100 µM (inactive)
GI50 (SK-MEL-5): > 100 µM (inactive)
GI50 (SK-OV-3): > 100 µM (inactive)
GI50 (SN12C): > 100 µM (inactive)
GI50 (SNB-19): > 100 µM (inactive)
GI50 (SNB-75): > 100 µM (inactive)
GI50 (SNB-78): > 100 µM (inactive)
GI50 (SW-620): 19.1 µM (inactive)
GI50 (TK-10): > 100 µM (inactive)
GI50 (U-251): 96.6 µM (inactive)
GI50 (UACC-257): > 100 µM (inactive)
GI50 (UACC-62): > 100 µM (inactive)
GI50 (UO-31): > 100 µM (inactive)
GI50 (XF498): 83 µM (inactive)

Reference: ChEMBL document CHEMBL1201862, “PubChem BioAssay data set” (2004)
